In US7534763B2 (Bristol-Myers Squibb Company, priority 2004, dated 2009):
*1 amine or outer side, *2 acyl side, *3 side chain or, on linkers, in order; H or OH if unused. Where a SMILES comes first, the peptide text is derived from it. [ ]: non-standard residue; d: D form. The star is where a group is joined. ξ: configuration not given here. Ala(6-(2-MePh)pyridin-3-yl) = Cc1ccccc1-c1ccc(C[C@H](N)C(=O)O)cn1; Bip(2'-Et-4'-OMe) = CCc1cc(OC)ccc1-c1ccc(C[C@H](N)C(=O)O)cc1; Lactoyl(3-(imidazol-4-yl)) = O=C([C@@H](O)Cc1c[nH]cn1)*; X2 = Cc1ccccc1-c1ncc(C[C@H](N[*:1])C(=O)[*:2])cn1; Bip(2'-Me) = Cc1ccccc1-c1ccc(C[C@H](N)C(=O)O)cc1; αMePhe(2,6-F2) = C[C@](N)(Cc1c(F)cccc1F)C(=O)O; αMePhe(2-F) = C[C@](N)(Cc1ccccc1F)C(=O)O; ξαMePhe(2-F) = CC(N)(Cc1ccccc1F)C(=O)O; Thr(3ξ) = CC(O)[C@H](N)C(=O)O; αMeP = C[C@@]1(C(=O)O)CCCN1; dNMeA = CN[C@H](C)C(=O)O; ξαMeP = CC1(C(=O)O)CCCN1; Aib = CC(C)(N)C(=O)O; Moc = COC(=O)*

Experiments:
Assay type in all cases: in vivo
[1] = tested on: ob/ob mice; assay: intraperitoneal glucose tolerance test (ipGTT) after sc injection in ob/ob mice (plasma glucose, insulin); conditions: for % AUC Reduction in Plasma Glucose in an IP Glucose Tolerance Test after SC Injection of Compound: 10 nmol/kg, vs vehicle group; for effect on postprandial plasma glucose (in words): ipGTT 0-180 or 210 min; for Potency in ob/ob mice, ED50: sc injection, ipGTT, plasma glucose AUC
Description: (§1) Peptides were dissolved in an appropriate vehicle at a concentration in nmol/ml equivalent to the dose that was to be administered in nmol/kg so that each mouse would receive the same volume/weight of dosing solution. Male C57BL/6J-ob/ob mice (10 weeks old) were randomized into groups of 6 mice per group based on fed plasma glucose and body weight. After an overnight fast, mice were weighed and placed in the experimental lab. After 30 min in the environment, the mice were bled via tail tip at −30 min and immediately injected subcutaneously (sc) with vehicle or the peptide dissolved in vehicle (0.1 ml solution/100 g body weight). At time 0 the mice were bled and then injected intraperitoneally with 50% glucose (2 g/kg) to initiate the intraperitoneal glucose tolerance test (ipGTT). The mice were bled 30, 60, 120 and 180 min after the glucose injection. Blood samples were drawn into potassium EDTA, placed on ice during the study and subsequently centrifuged for 10 min at 3000 rpm at 4° C. Plasma samples were diluted 11-fold for glucose analysis in the Cobas System. Another 5 μl plasma sample was diluted 5-fold with 20 μl of Sample Diluent (Insulin ELISA assay kit, Crystal Chem Inc.) and stored at −20° C. for subsequent analysis using the Ultra Sensitive Mouse Insulin ELISA kit (Crystal Chem Inc.).

[2] = Exposure during ipGTT in ob/ob mice; conditions: sc
Description: as §1

[3] = Dog pharmacokinetic study (iv and sc, solution vehicles); conditions: vehicle propylene glycol/pH 7.4 phosphate buffer (1:1); for AUC: male, beagle, dog, plasma, sc, 67 ug/kg, Table II, read-out: Exposure in dogs (sc@67 μg/kg)
Description: The pharmacokinetic parameters of the compound of SEQ ID NO:9 were determined in male beagle dogs (n=4, 14±1 kg). Following an overnight fast, each animal received the compound of SEQ ID NO:9 either as an intravenous bolus via femoral vein (67 μg/kg) or by subcutaneous injection given at near the shoulder blades (67 μg/kg). Each animal received both intravenous and subcutaneous doses with a one-week washout between doses following a crossover design. […] Serial blood samples were collected in EDTA-containing microcentrifuge tubes at predose, 0.083, 0.25, 0.5, 0.75, 1, 2, 4, 6, 8, 24, and 30 hours post-dose after intravenous administration; at predose, 0.25, 0.5, 0.75, 1, 2, 4, 6, 8, 24, and 30 hours post-dose after subcutaneous administration. Approximately 0.3 mL of blood was collected at each time point. Blood samples were immediately centrifuged at 4° C. The obtained plasma was frozen with dry ice and stored at −20° C. Plasma drug levels were determined using the LC-MS/MS assay described above.
Plasma samples from in vivo dog study were prepared for analysis by precipitating plasma proteins with two volumes of acetonitrile containing an internal standard. The samples were vortex mixed and removed the precipitated proteins by centrifugation. The resulting supernatants were transferred to a 96-well plate and 10 μL were injected for analysis. Samples were prepared with the Packard Multiprobe II and Quadra 96 Liquid Handling System.
The HPLC system consisted of two Shimadzu LC10AD pumps (Columbia, Md.), a CTC PAL autosampler (Leap Technologies, Switzerland). The column used was a YMC Hydrosphere C18 (2.0×50 mm, 3 μm) (YMC, Inc., Milford, Ma.). The column temperature was maintained at 50° C. and the flow rate was 0.3 mL/minute. The mobile phase A consisted of 10 mM ammonium formate and 0.1% formic acid in water and mobile phase B consisted of 0.1% formic acid in acetonitrile. The initial mobile phase composition was 5% B, and remained at 5% B for one minute to equilibrate the column. The composition was ramped to 95% B over two minutes and held there for one additional minute. The mobile phase was then returned to initial conditions in one minute. Total analysis time was five minutes. A switching valve was used. The eluents between 0-1 minute were diverted to the waste.
The HPLC was interfaced to a Sciex API 4000 mass spectrometer, (Applied Biosystems, Foster City, Calif.) and was equipped with a TurboIonspray ionization source. Ultra high purity nitrogen was used as the nebulizing and turbo gas. The temperature of turbo gas was set at 300° C. and the interface heater was set at 60° C. Data acquisition utilized selected reaction monitoring (SRM). Ions representing the (M+2H)^2+ species for the compound of SEQ ID NO:9, and (M+2H)^2+ for BMS-501143 (IS) were selected in Q1 and were collisionally dissociated with high purity nitrogen at a pressure of 3.5×10^−3torr to form specific product ions which were subsequently monitored by Q3.
The standard curve concentrations, ranging from 1 to 1000 nM and from 4 to 5000 nM, were used for the in vivo samples obtained from low and high doses, respectively. The curves were fitted with a quadratic regression weighted by reciprocal […]. Standards were analyzed in duplicate. Quality control (QC) samples, prepared in blank matrix at the same concentrations as the standard were also analyzed in each analytical set. For the compound of SEQ ID NO:9, the calculated concentrations of more than 80% of the QCs were within 20% of nominal concentration, indicating acceptable assay performance.
The compound of SEQ ID NO:9 plasma concentration vs. time data were analyzed by noncompartmental methods using the […]™ software program. The Cmax and Tmax values were recorded directly from experimental observations. The AUC0-n and AUCtot values were calculated using a combination of linear and log trapezoidal summations. […]

| Exposure/dose during ipGTT in ob/ob mice [2] [nM * h/nmol/kg] | AUC [3] [µM·h] | SMILES | % AUC Reduction in Plasma Glucose in an IP Glucose Tolerance Test after SC Injection of Compound ([1]; ob/ob mice) | effect on postprandial plasma glucose (in words) ([1]; ob/ob mice, sc) | further results |
| --- | --- | --- | --- | --- | --- |
| 22 | 0.089 | CCc1cc(OC)ccc1-c1ccc(C[C@H](NC(=O)[C@H](CC(=O)O)NC(=O)[C@H](CO)NC(=O)[C@@H](NC(=O)[C@](C)(Cc2ccccc2F)NC(=O)[C@@H](NC(=O)CNC(=O)[C@H](CCC(=O)O)NC(=O)C(C)(C)NC(=O)[C@@H](N)Cc2c[nH]cn2)C(C)O)C(C)O)C(=O)N[C@@H](Cc2ccc(-c3ccccc3C)cc2)C(N)=O)cc1 (some centres unmarked) [Compound I, reference compound] (H-H[Aib]EG[Thr(3ξ)][αMePhe(2-F)][Thr(3ξ)]SD[Bip(2'-Et-4'-OMe)][Bip(2'-Me)]-NH2) | −15% (p = 0.247, NS) | decreasing in a dose-dependent manner | Potency in ob/ob mice, ED50 [1]: ED50 = 50 nmoles/kg; Potency in ob/ob mice, ED50 ([1]; listed as compound I): 50 nmol/kg; Exposure in dogs (sc@67 μg/kg) ([3]; Table I): 0.089 µM·h |
| 4.4 | 4.02 | CCc1cc(OC)ccc1-c1ccc(C[C@H](NC(=O)[C@H](CC(=O)O)NC(=O)[C@H](CO)NC(=O)[C@@H](NC(=O)C(C)(Cc2ccccc2F)NC(=O)[C@@H](NC(=O)CNC(=O)[C@H](CCC(=O)O)NC(=O)C2(C)CCCN2C(=O)[C@@H](N)Cc2c[nH]cn2)[C@@H](C)O)[C@@H](C)O)C(=O)N[C@@H](Cc2ccc(-c3ccccc3C)nc2)C(N)=O)cc1 (some centres unmarked) [SEQ ID NO: 118] (H-H[ξαMeP]EGT[ξαMePhe(2-F)]TSD[Bip(2'-Et-4'-OMe)][Ala(6-(2-MePh)pyridin-3-yl)]-NH2) | −70% (p < 0.001) | statistically significant decrease | plasma glucose AUC decrease ([1]; ob/ob mice, sc, 30 nmol/kg): 81%; Potency in ob/ob mice, ED50 [1]: 2.5 nmol/kg |
|  | 1.26 | CCc1cc(OC)ccc1-c1ccc(C[C@H](NC(=O)[C@H](CC(=O)O)NC(=O)[C@H](CO)NC(=O)[C@@H](NC(=O)[C@](C)(Cc2ccccc2F)NC(=O)[C@@H](NC(=O)CNC(=O)[C@H](CCC(=O)O)NC(=O)[C@@H](C)N(C)C(=O)[C@@H](N)Cc2c[nH]cn2)[C@@H](C)O)[C@@H](C)O)C(=O)N[C@@H](Cc2ccc(-c3ccccc3C)nc2)C(N)=O)cc1 [SEQ ID NO: 119] (H-H[dNMeA]EGT[αMePhe(2-F)]TSD[Bip(2'-Et-4'-OMe)][Ala(6-(2-MePh)pyridin-3-yl)]-NH2) |  |  |  |
|  | 1.12 | CCc1cc(OC)ccc1-c1ccc(C[C@H](NC(=O)[C@H](CC(=O)O)NC(=O)[C@H](Cc2c[nH]cn2)NC(=O)[C@@H](NC(=O)[C@](C)(Cc2ccccc2F)NC(=O)[C@@H](NC(=O)CNC(=O)[C@H](CCC(=O)O)NC(=O)[C@]2(C)CCCN2C(=O)[C@@H](N)Cc2c[nH]cn2)[C@@H](C)O)[C@@H](C)O)C(=O)N[C@@H](Cc2ccc(-c3ccccc3C)nc2)C(N)=O)cc1 [SEQ ID NO: 120] (H-H[αMeP]EGT[αMePhe(2-F)]THD[Bip(2'-Et-4'-OMe)][Ala(6-(2-MePh)pyridin-3-yl)]-NH2) |  |  |  |
|  | 0.541 | CCc1cc(OC)ccc1-c1ccc(C[C@H](NC(=O)[C@H](CC(=O)O)NC(=O)[C@H](CO)NC(=O)[C@@H](NC(=O)[C@](C)(Cc2ccccc2F)NC(=O)[C@@H](NC(=O)CNC(=O)[C@H](CCC(=O)O)NC(=O)C(C)(C)NC(=O)[C@@H](N)Cc2c[nH]cn2)[C@@H](C)O)[C@@H](C)O)C(=O)N[C@@H](Cc2cnc(-c3ccccc3C)nc2)C(N)=O)cc1 [SEQ ID NO: 130] (H-H[Aib]EGT[αMePhe(2-F)]TSD[Bip(2'-Et-4'-OMe)][X2]-NH2) |  |  |  |
|  | 1.6 | CCc1cc(OC)ccc1-c1ccc(C[C@H](NC(=O)[C@H](CC(=O)O)NC(=O)[C@H](CO)NC(=O)[C@@H](NC(=O)C(C)(Cc2ccccc2F)NC(=O)[C@@H](NC(=O)CNC(=O)[C@H](CCC(=O)O)NC(=O)C2(C)CCCN2C(=O)[C@H](Cc2c[nH]cn2)NC(=O)OC)[C@@H](C)O)[C@@H](C)O)C(=O)N[C@@H](Cc2ccc(-c3ccccc3C)nc2)C(N)=O)cc1 (some centres unmarked) [SEQ ID NO: 139] (Moc-H[ξαMeP]EGT[ξαMePhe(2-F)]TSD[Bip(2'-Et-4'-OMe)][Ala(6-(2-MePh)pyridin-3-yl)]-NH2) | −63% (p < 0.01) |  |  |
|  | 0.283 | CCc1cc(OC)ccc1-c1ccc(C[C@H](NC(=O)[C@H](CC(=O)O)NC(=O)[C@H](CO)NC(=O)[C@@H](NC(=O)[C@](C)(Cc2c(F)cccc2F)NC(=O)[C@@H](NC(=O)CNC(=O)[C@H](CCC(=O)O)NC(=O)[C@]2(C)CCCN2C(=O)[C@H](Cc2c[nH]cn2)NC(=O)OC)[C@@H](C)O)[C@@H](C)O)C(=O)N[C@@H](Cc2ccc(-c3ccccc3C)nc2)C(N)=O)cc1 [SEQ ID NO: 140] (Moc-H[αMeP]EGT[αMePhe(2,6-F2)]TSD[Bip(2'-Et-4'-OMe)][Ala(6-(2-MePh)pyridin-3-yl)]-NH2) |  |  |  |
|  | 0.94 | CCc1cc(OC)ccc1-c1ccc(C[C@H](NC(=O)[C@H](CC(=O)O)NC(=O)[C@H](CO)NC(=O)[C@@H](NC(=O)[C@](C)(Cc2ccccc2F)NC(=O)[C@@H](NC(=O)CNC(=O)[C@H](CCC(=O)O)NC(=O)[C@@H](C)NC(=O)[C@@H](N)Cc2c[nH]cn2)[C@@H](C)O)[C@@H](C)O)C(=O)N[C@@H](Cc2ccc(-c3ccccc3C)nc2)C(N)=O)cc1 [SEQ ID NO: 149] (H-H[dA]EGT[αMePhe(2-F)]TSD[Bip(2'-Et-4'-OMe)][Ala(6-(2-MePh)pyridin-3-yl)]-NH2) |  |  |  |
|  | 0.979 | CCc1cc(OC)ccc1-c1ccc(C[C@H](NC(=O)[C@H](CC(=O)O)NC(=O)[C@H](CO)NC(=O)[C@@H](NC(=O)[C@](C)(Cc2ccccc2F)NC(=O)[C@@H](NC(=O)CNC(=O)[C@H](Cc2c[nH]cn2)NC(=O)C(C)(C)NC(=O)[C@@H](N)Cc2c[nH]cn2)[C@@H](C)O)[C@@H](C)O)C(=O)N[C@@H](Cc2ccc(-c3ccccc3C)nc2)C(N)=O)cc1 [SEQ ID NO: 150] (H-H[Aib]HGT[αMePhe(2-F)]TSD[Bip(2'-Et-4'-OMe)][Ala(6-(2-MePh)pyridin-3-yl)]-NH2) |  |  |  |
| 16 |  | CCc1cc(OC)ccc1-c1ccc(C[C@H](NC(=O)[C@H](CC(=O)O)NC(=O)[C@H](Cc2c[nH]cn2)NC(=O)[C@@H](NC(=O)C(C)(Cc2ccccc2F)NC(=O)[C@@H](NC(=O)CNC(=O)[C@H](CCC(=O)O)NC(=O)C2(C)CCCN2C(=O)[C@@H](O)Cc2c[nH]cn2)[C@@H](C)O)[C@@H](C)O)C(=O)N[C@@H](Cc2ccc(-c3ccccc3C)nc2)C(N)=O)cc1 (some centres unmarked) [SEQ ID NO: 151] ({Lactoyl(3-(imidazol-4-yl))}-[ξαMeP]EGT[ξαMePhe(2-F)]THD[Bip(2'-Et-4'-OMe)][Ala(6-(2-MePh)pyridin-3-yl)]-NH2) |  | statistically significant decrease |  |
